# Literature values, collected in patent US20050096390A1 (priority 2003, published 2005).
# Legend:
# [1] = pH of 7.0
# [2] = 160 mg fenofibrate tablets, typical average blood plasma sample
SMILES,partition coefficient (octanol/water) [1],"solubility in acetone, acetonitrile, chloroform, and ether (acetone, acetonitrile, chloroform, ether)",solubility in isopropanol (isopropanol),solubility in methanol (methanol) [mg/mL],solubility in water,AUC0-24 of fenofibrate [2]
"CC[C@H](C)C(=O)O[C@H]1C[C@H](O)C=C2C=C[C@H](C)[C@H](CC[C@@H](O)C[C@@H](O)CC(=O)[O-])[C@H]21.[Na+] (relative stereo) [Pravastatin sodium, 1-naphthalene-heptanoic acid, 1,2,6,7,8,8a-hexahydro-(beta),(beta),6-trihydroxy-2-methyl-8-(2-methyl-1-oxobutoxy)-, monosodium salt, [1S-[1(alpha)((beta)S*,(beta)S*),2(alpha),6(alpha), 8(beta)(R*),8a(alpha)]]-]",0.59,practically insoluble,slightly soluble,> 300,> 300 mg/mL,–
CC[C@H](C)C(=O)O[C@H]1C[C@H](O)C=C2C=C[C@H](C)[C@H](CC[C@@H](O)C[C@@H](O)CC(=O)O)[C@H]21 [Pravastatin],–,–,–,–,sparingly soluble,–
CC(C)OC(=O)C(C)(C)Oc1ccc(C(=O)c2ccc(Cl)cc2)cc1 [Fenofibrate],–,–,–,–,–,"about 118,300 h·ng/mL"
